For assay [1], the system named is Cr. neoformans cells. Kind of assay: Propidium iodide staining, fluorescence microscopy. It is filed as cell-based, Cryptococcus neoformans. The note with it: peptide 300 µM, 30 °C, 1 h, 0.03 mM PI 15 min. As for the experimental part:
(§1) Their ability to disturb the integrity of pathogen membranes was assayed by staining with propidium iodide of C. albicans and Cr. neoformans cells preliminarily incubated with the peptides. The results were visualized by fluorescent microscopy and quantified by flow cytometry (Figure 5, Figure 6 and Figure 7).
(§2) Staining of yeast cells with propidium iodide in the presence of the γ-core peptides was carried out according to the protocol described earlier. C. albicans or Cr. neoformans cells (24 h culture in YPD-P at a cell concentration of 2 × 10^8/mL) were incubated with the peptide at a concentration of 300 µM at 30 °C for 1 h. After incubation, 1 mL of the cells was stained with 0.03 mM propidium iodide (Sigma, St. Louis, MO, USA). The staining proceeded for 15 min at 30 °C. The fluorescence was recorded on an AXIO Imager A1 fluorescence microscope (ZEISS, Göttingen, Germany) using a Zeiss filter set 56 HE.

Assay [2] relates to C. albicans cells. Kind of assay: Propidium iodide staining, fluorescence microscopy. The assay is classed as cell-based, Candida albicans. The note with it: peptide 300 µM, 30 °C, 1 h, 0.03 mM PI 15 min. As for the experimental part: as §1, §2
Assay [3] has as its system Pseudomonas savastanoi pv. savastanoi VKM B-1546. It is filed as cell-based. The note with it: peptide 10–300 µM, 30 °C, 24 h, absorbance 594 nm; from activity vs concentration graph; mean ± SD; read-out: IC50, μM Ps. savastanoi. Here is the method: (§3) The antimicrobial activity of synthetic peptides was tested against a panel of human and plant pathogens. Among them were the yeasts Candida albicans VKM Y-2994 and Cryptococcus neoformans VKM Y-2755, the plant pathogenic bacteria Clavibacter michiganensis subsp. michiganensis VKM Ac-1403, Pseudomonas savastanoi pv. savastanoi VKM B-1546 and Pectobacterium carotovorum subsp. carotovorum VKM B-1247, and four Fusarium species (F. oxysporum VKM F-137, F. culmorum VKM F-2303, F. solani VKM F-142 and F. verticillioides VKM F-670), which cause diseases in plants and humans. The antimicrobial activity was first measured at the peptide concentration of 300 µM (Figure 3).
(§4) The antimicrobial activity of synthetic peptides was tested against the yeasts Candida albicans VKM Y-2994 and Cryptococcus neoformans VKM Y-2755, the bacteria Pseudomonas savastanoi pv. savastanoi VKM B-1546, Pectobacterium carotovorum subsp. carotovorum VKM B-1247 and Clavibacter michiganensis subsp. michiganensis VKM Ac-1403, and four Fusarium species: F. culmorum VKM F-2303, F. oxysporum VKM F-137, F. solani VKM F-142 and F. verticillioides VKM F-670. All cultures were obtained from the All-Russian Collection of Microorganisms (VKM). The details of the production and storage of cultures of microorganisms used in this study are described at the VKM Home page. Antimicrobial assays were accomplished according to the procedure described earlier. In short, yeasts were grown on the YPD-P medium and the bacteria P. carotovorum and Cl. michiganensis were cultured on a modified YPD-P medium. The Fusarium fungi were grown on potato dextrose agar at 25 °C for 7–8 days, and spores were washed off from the surface of the mycelia with sterile, distilled water. The antimicrobial activity of the peptides was measured in immunoassay microtiter plates according to the protocol of Broekaert et al.. With yeasts and bacteria, each well contained 10 µL of the tested peptide solution (final concentrations of 10–300 µM) in water, 80 µL of the medium and 10 µL of the microbial suspension. The plates were incubated at 30 °C for 24 h, and the absorbance of the suspension was measured on an Efos 9305 spectrophotometer (Sapphire, Moscow, Russia) at 594 nm. For Fusarium species, the wells of a microtiter plate were filled with 90 µL of the fungal spore suspension in half-strength potato dextrose broth at a concentration of 2000–3000 spores in 100 µL and 10 µL of aqueous solutions of peptides at final concentrations of 10–300 µM. After 38 h of incubation, the absorbance was recorded at 595 nm on a FilterMax F5 Multi-Mode Microplate Reader (Molecular Devices, San Jose, CA, USA). Antimicrobial activity is expressed in IC50 values, which show the concentration necessary for 50% inhibition of the pathogen growth; this was determined from a graph showing the activity dependence on peptide concentration.
(§5) For each pathogen, experiments on the peptide antimicrobial activity evaluation were carried out in triplicate per treatment. Mean values, standard deviations (SD), and the significance of differences (p ≤ 0.05) of the means between treatments and controls (t-test for independent variables) were determined using STATISTICA v. 6.1 software (StatSoft Inc., Tulsa, OK, USA).

In assay [4] the test system is Candida albicans VKM Y-2994. It is filed as cell-based. Here is the method:
as §3, §4, §5

Assay [5] relates to Cryptococcus neoformans VKM Y-2755. It is filed as cell-based. Here is the method: as §3, §4, §5
Assay [6] deals with Cr. neoformans cells. Kind of assay: Propidium iodide penetration, flow cytometry. It is filed as cell-based, Cryptococcus neoformans. The note with it: 28 °C, 2 h. Here is the method: as §1
For flow cytometry experiments with Cr. neoformans, the yeasts were grown on the YPD medium at 28 °C for 48 h. After that, the cells were centrifuged at 12,000× g for 3 min, washed with MiliQ water and incubated with the peptides dissolved in water at a concentration of 300 µM at 28 °C for 2 h. The cells were stained with propidium iodide by direct addition of the dye to the incubation medium (final concentration of 2 µg/mL) and measured on a NovoCyte Flow cytometer (Agilent, Santa Clara, CA, USA) using the channel FL2 (488 nm excitation and 585 nm emission). The sample without peptides was used as a control.
(A flow cytometer gives signals particle by particle.)

Assay [7] deals with F. verticillioides VKM F-670. It is filed as cell-based, Fusarium verticillioides. Here is the method: as §3, §4, §5
The subject of assay [8] is Pectobacterium carotovorum subsp. carotovorum VKM B-1247. The note with it: 300 µM peptide; modified YPD-P medium, 30 °C, 24 h, absorbance 594 nm; vs control without peptide; triplicate, mean. As for the experimental part: All cultures were obtained from the All-Russian Collection of Microorganisms (VKM).
Mean values, standard deviations (SD), and the significance of differences (p ≤ 0.05) of the means between treatments and controls (t-test for independent variables) were determined using […] v. 6.1 software (StatSoft Inc., Tulsa, OK, USA).

Assay [9] has as its system Clavibacter michiganensis subsp. michiganensis VKM Ac-1403. The experiment in a line: Growth inhibition of Cl. michiganensis in microtiter plates. It is filed as cell-based. The note with it: inhibition curves (Figure 4); highest tested concentration of 300 µM. As for the experimental part:
as §3
The antimicrobial activity of synthetic peptides was tested against the yeasts Candida albicans VKM Y-2994 and Cryptococcus neoformans VKM Y-2755, the bacteria Pseudomonas savastanoi pv. savastanoi VKM B-1546, Pectobacterium carotovorum subsp. carotovorum VKM B-1247 and Clavibacter michiganensis subsp. michiganensis VKM Ac-1403, and four Fusarium species: F. culmorum VKM F-2303, F. oxysporum VKM F-137, F. solani VKM F-142 and F. verticillioides VKM F-670. All cultures were obtained from the All-Russian Collection of Microorganisms (VKM). […] The antimicrobial activity of the peptides was measured in immunoassay microtiter plates according to the protocol of Broekaert et al.. […] The plates were incubated at 30 °C for 24 h, and the absorbance of the suspension was measured on an Efos 9305 spectrophotometer (Sapphire, Moscow, Russia) at 594 nm. […] After 38 h of incubation, the absorbance was recorded at 595 nm on a FilterMax F5 Multi-Mode Microplate Reader (Molecular Devices, San Jose, CA, USA). […]
For each pathogen, experiments on the peptide antimicrobial activity evaluation were carried out in triplicate per treatment. Mean values, standard deviations (SD), and the significance of differences (p ≤ 0.05) of the means between treatments and controls (t-test for independent variables) were determined using STATISTICA v. […]

Assay [10] deals with F. oxysporum VKM F-137. Kind of assay: Growth inhibition of F. oxysporum in microtiter plates. The assay is classed as cell-based, Fusarium oxysporum. The note with it: 300 µM peptide; spores in half-strength potato dextrose broth, 38 h, absorbance 595 nm; vs control without peptide; triplicate, mean. Here is the method:
as §3
(§6) The antimicrobial activity of synthetic peptides was tested against the yeasts Candida albicans VKM Y-2994 and Cryptococcus neoformans VKM Y-2755, the bacteria Pseudomonas savastanoi pv. savastanoi VKM B-1546, Pectobacterium carotovorum subsp. carotovorum VKM B-1247 and Clavibacter michiganensis subsp. michiganensis VKM Ac-1403, and four Fusarium species: F. culmorum VKM F-2303, F. oxysporum VKM F-137, F. solani VKM F-142 and F. verticillioides VKM F-670. All cultures were obtained from the All-Russian Collection of Microorganisms (VKM). […] The antimicrobial activity of the peptides was measured in immunoassay microtiter plates according to the protocol of Broekaert et al.. […]

For assay [11], the system named is F. solani VKM F-142. The experiment in a line: Growth inhibition of F. solani in microtiter plates. It is filed as cell-based, Fusarium solani. The note with it: 300 µM peptide; spores in half-strength potato dextrose broth, 38 h, absorbance 595 nm; vs control without peptide; triplicate, mean. As for the experimental part: as §3, §6
Assay [12] has as its system F. culmorum VKM F-2303. The experiment in a line: Growth inhibition of F. culmorum in microtiter plates. The assay is classed as cell-based, Fusarium culmorum. The note with it: 300 µM peptide; spores in half-strength potato dextrose broth, 38 h, absorbance 595 nm; vs control without peptide; triplicate, mean. Here is the method:
as §3, §6

Setting [13] is: inhibition curves (Figure 4), highest tested concentration (300 µM).

Molecules are shown by their SMILES. Where a SMILES comes first, the peptide text is derived from it.

On to `C[C@H](NC(=O)[C@H](CCCNC(=N)N)NC(=O)CNC(=O)[C@@H](NC(=O)[C@H](Cc1ccc(O)cc1)NC(=O)[C@@H]1CCCN1C(=O)[C@H](CCCNC(=N)N)NC(=O)CNC(=O)[C@H](CCCNC(=N)N)NC(=O)[C@H](C)NC(=O)[C@@H]1CCCN1C(=O)[C@@H](N)CS)[C@@H](C)O)C(=O)N[C@@H](CS)C(=O)O` [DEFL4-37_90-102] (H-CPARGRPYTGRAC-OH; N-terminus and C-terminus assumed), for which the “Membrane permeabilization of Cr. neoformans cells (PI staining)” value in [1] is “induced membrane permeabilization”. Besides, the “Membrane permeabilization of C. albicans cells (PI staining)” value in [2] is given as “induced membrane permeabilization”. In addition, the IC50 in assay [3] was over 100 µM; in [4] (peptide 10–300 µM, 30 °C, 24 h, absorbance 594 nm, from activity vs concentration graph, mean ± SD) it was over 100 µM; in assay [5] (peptide 10–300 µM, 30 °C, 24 h, absorbance 594 nm, from activity vs concentration graph, mean ± SD, read-out: IC50, μM Cr. neoformans), over 100 µM; in [7] (peptide 10–300 µM, 38 h, absorbance 595 nm, from activity vs concentration graph, mean ± SD), over 100 µM. Moreover, the “Inhibition of C. albicans at the highest tested concentration” value in assay [4] (setting [13]) is recorded as “about 35%”. Also, the “Inhibition of Cr. neoformans at the highest tested concentration” value in assay [5] (setting [13]) turned out to be 100%. Moreover, the “Penetration of propidium iodide (PI) into Cr. neoformans cells” value in assay [6] (peptide 300 µM in water, PI 2 µg/mL, FL2 (488/585 nm)) turned out to be 68.48%. Also, the “Number of Cr. neoformans cells in flow cytometry” value in [6] (peptide 300 µM) is recorded as “reduction in the number of Cr. neoformans cells”. For the same compound, the “Maximum inhibition of F. verticillioides at 150 µM” value in assay [7] (inhibition curves (Figure 4), peptide 150 µM) is listed as “about 35%”. In addition, the “Pathogen inhibition, % (P. carotovorum)” value in assay [8] is 36%.

Consider `CC(C)C[C@H](NC(=O)[C@H](CCCNC(=N)N)NC(=O)[C@H](C)NC(=O)[C@H](CS)NC(=O)[C@H](CS)NC(=O)CNC(=O)[C@@H]1CCCN1)C(=O)N[C@@H](CCCNC(=N)N)C(=O)N[C@@H](C)C(=O)N[C@@H](CCC(N)=O)C(=O)N[C@@H](CCCNC(=N)N)C(=O)N[C@@H](C)C(=O)N[C@@H](CS)C(=O)O` [TkLTP2.25_50-62] (H-PGCCARLRAQRAC-OH; N-terminus and C-terminus assumed), for which the “Membrane permeabilization of Cr. neoformans cells (PI staining)” value in assay [1] is on record as “induced membrane permeabilization”. Further, the “Membrane permeabilization of C. albicans cells (PI staining)” value in assay [2] is on record as “induced membrane permeabilization”. The “Inhibition of Cl. michiganensis at the highest tested concentration” value in assay [9] is given as 95%.

On to `CC[C@H](C)[C@H](NC(=O)[C@@H](NC(=O)[C@H](Cc1c[nH]cn1)NC(=O)[C@@H](NC(=O)[C@H](C)NC(=O)[C@@H](NC(=O)[C@H](CS)NC(=O)[C@H](CS)NC(=O)CNC(=O)[C@@H](N)CO)[C@@H](C)O)C(C)C)[C@@H](C)O)C(=O)NCC(=O)N[C@@H](CCCCN)C(=O)N[C@@H](CCC(N)=O)C(=O)N[C@@H](CO)C(=O)N1CCC[C@H]1C(=O)N[C@@H](CCCCN)C(=O)N[C@@H](CS)C(=O)O` [TkLTPd5.6_59-75] (H-SGCCTAVHTIGKQSPKC-OH; N-terminus and C-terminus assumed), for which, in assay [10], the “Pathogen inhibition, % (F. oxysporum)” value is “inactive”. The “Pathogen inhibition, % (F. solani)” value in [11] is “inactive”. For the same compound, the “Pathogen inhibition, % (F. culmorum)” value in assay [12] was “inactive”. Moreover, the “Pathogen inhibition, % (F. verticillioides)” value in assay [7] (300 µM peptide, spores in half-strength potato dextrose broth, 38 h, absorbance 595 nm, vs control without peptide, triplicate, mean) was “inactive”.

The term IC50 denotes the concentration that inhibits the measured activity by half.
